The target of assay [1] is T1, Cannabinoid receptor 2 (Homo sapiens, UniProt P34972). Description: SAR analysis of antagonists of the Cannabinoid Receptor 2 using an Image-Based Assay - Set 3. [Related pubchem assays (depositor defined):AID2013, AID2026]. The class given is functional.
For assay [2], the target named is T1, Cannabinoid receptor 2. Description: SAR analysis of agonists of the Cannabinoid Receptor 2 using an Image-Based Assay - Set 3. [Related pubchem assays (depositor defined):AID2013, AID2026]. Type of assay: functional.
For assay [3], the target named is G-protein coupled receptor 55 (Homo sapiens, UniProt Q9Y2T6). Description: SAR Analysis of Selective Antagonists of GPR55 using an Image-Based Assay - Set 4. [Related pubchem assays (depositor defined):AID2013, AID2026]. The class given is functional.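 Note: antagonism of response to 5 µM lysophosphatidylinositol agonist.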
Sequence of G-protein coupled receptor 55 (Q9Y2T6 whole entry): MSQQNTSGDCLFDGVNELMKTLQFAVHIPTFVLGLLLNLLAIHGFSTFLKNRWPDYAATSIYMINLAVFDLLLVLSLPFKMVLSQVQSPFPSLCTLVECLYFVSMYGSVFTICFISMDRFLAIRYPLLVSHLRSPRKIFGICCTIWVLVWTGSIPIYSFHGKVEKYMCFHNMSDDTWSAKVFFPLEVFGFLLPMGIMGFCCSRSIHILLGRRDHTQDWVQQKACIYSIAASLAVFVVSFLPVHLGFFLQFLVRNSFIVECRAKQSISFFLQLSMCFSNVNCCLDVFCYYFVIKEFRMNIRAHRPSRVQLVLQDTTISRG
Assay [4] addresses T2, G-protein coupled receptor 35 (Homo sapiens, UniProt Q9HC97). Description: SAR analysis of Agonists of the GPR35 Receptor using an Image-Based Assay - Set 4. [Related pubchem assays (depositor defined):AID2013, AID2026]. Type of assay: functional.
The target of assay [5] is T2, G-protein coupled receptor 35. Put plainly: SAR analysis of Antagonists of the GPR35 Receptor using an Image-Based Assay - Set 6. [Related pubchem assays (depositor defined):AID2013, AID2026]. Type of assay: functional.
In assay [6] the target is T3, Cannabinoid receptor 1 (Homo sapiens, UniProt P21554). Put plainly: SAR analysis of antagonists of the Cannabinoid Receptor 1 using an Image-Based Assay - Set 4. [Related pubchem assays (depositor defined):AID2013, AID2026]. The class given is functional.
T3 sequence (P21554 whole entry): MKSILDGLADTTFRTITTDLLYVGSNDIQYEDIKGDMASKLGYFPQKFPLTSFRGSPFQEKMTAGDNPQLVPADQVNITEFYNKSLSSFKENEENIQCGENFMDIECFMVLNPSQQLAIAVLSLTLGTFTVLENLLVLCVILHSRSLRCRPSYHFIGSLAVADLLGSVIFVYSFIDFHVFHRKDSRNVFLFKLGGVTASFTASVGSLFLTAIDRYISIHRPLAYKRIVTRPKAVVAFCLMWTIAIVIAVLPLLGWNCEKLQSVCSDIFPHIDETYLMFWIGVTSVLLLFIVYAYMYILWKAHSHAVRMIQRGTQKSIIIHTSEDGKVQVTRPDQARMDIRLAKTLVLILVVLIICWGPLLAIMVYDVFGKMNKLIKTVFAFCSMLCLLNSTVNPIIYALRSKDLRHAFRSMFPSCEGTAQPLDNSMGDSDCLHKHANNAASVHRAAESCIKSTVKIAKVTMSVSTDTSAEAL
For assay [7], the target named is T3, Cannabinoid receptor 1. Put plainly: SAR analysis of agonists of the Cannabinoid Receptor 1 using an Image-Based Assay - Set 4. [Related pubchem assays (depositor defined):AID2013, AID2026]. The class given is functional.
The nature of assay [8]: Counterscreen for antagonists of the orexin 1 receptor (OX1R; HCRTR1): Fluorescence-based cell-based high throughput dose response assay to identify antagonists of the parental CHO cell line. [Related pubchem assays (depositor defined):AID434989, AID435008, AID463079, AID485270, AID492963, AID492964, AID492965, AID493232, AID504699, AID504701]. Type of assay: functional. In general terms: Counterscreens check selectivity or assay interference.

In assay [9] the target is T4, Orexin/Hypocretin receptor type 1 (Homo sapiens, UniProt O43613).
T4 sequence (O43613 whole entry): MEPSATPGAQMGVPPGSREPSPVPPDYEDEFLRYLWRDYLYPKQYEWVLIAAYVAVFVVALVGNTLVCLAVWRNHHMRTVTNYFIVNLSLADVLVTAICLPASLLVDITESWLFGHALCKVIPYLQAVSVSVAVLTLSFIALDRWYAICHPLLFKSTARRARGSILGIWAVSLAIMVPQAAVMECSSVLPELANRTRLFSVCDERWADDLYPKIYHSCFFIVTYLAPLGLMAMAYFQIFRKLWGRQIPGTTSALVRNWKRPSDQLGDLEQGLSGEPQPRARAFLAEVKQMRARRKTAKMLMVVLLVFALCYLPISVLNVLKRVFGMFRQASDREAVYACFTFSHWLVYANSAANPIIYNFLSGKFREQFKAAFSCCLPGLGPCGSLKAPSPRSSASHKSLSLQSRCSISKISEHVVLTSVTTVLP
Description: Homogeneous Time Resolved Fluorescence (HTRF)-based cell-based high throughput dose response assay for antagonists of the orexin 1 receptor (OX1R; HCRTR1). [Related pubchem assays (depositor defined):AID434989, AID435008, AID463079, AID485270, AID492963, AID492964, AID492965, AID493232, AID504717, AID504718]. Type of assay: functional.

The next assay concerns CHO-K1. Put plainly: Counterscreen for antagonists of the orexin 1 receptor (OX1R; HCRTR1): Homogeneous time resolved fluorescence (HTRF)-based cell-based dose response assay to identify antagonists of the parental CHO-K1 cell line. [Related pubchem assays (depositor defined):AID434989, AID435008, AID463079, AID485270, AID492963, AID492964, AID492965, AID493232, AID504699, AID504701]. Type of assay: functional. The conditions noted are these: Cricetulus griseus.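 Note: potency for inhibition of ATP-stimulated IP1 production as antagonists.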

Assay [10] concerns the target T4, Orexin/Hypocretin receptor type 1. Description: Fluorescence-based cell-based high throughput dose response assay for antagonists of the orexin 1 receptor (OX1R; HCRTR1). [Related pubchem assays (depositor defined):AID434989, AID435008, AID463079, AID485270, AID492963, AID492964, AID492965, AID493232, AID504717, AID504718]. The class given is functional.
The target in assay [11] is Voltage-dependent T-type calcium channel subunit alpha-1H (Homo sapiens, UniProt O95180). Put plainly: human CACNA1H calcium influx blockade – cell-based, synthetic library set 2, HEK293 HH8, Fluo-4, SAR follow-up (AID 493023). Type of assay: functional.
Sequence of Voltage-dependent T-type calcium channel subunit alpha-1H (O95180 whole entry): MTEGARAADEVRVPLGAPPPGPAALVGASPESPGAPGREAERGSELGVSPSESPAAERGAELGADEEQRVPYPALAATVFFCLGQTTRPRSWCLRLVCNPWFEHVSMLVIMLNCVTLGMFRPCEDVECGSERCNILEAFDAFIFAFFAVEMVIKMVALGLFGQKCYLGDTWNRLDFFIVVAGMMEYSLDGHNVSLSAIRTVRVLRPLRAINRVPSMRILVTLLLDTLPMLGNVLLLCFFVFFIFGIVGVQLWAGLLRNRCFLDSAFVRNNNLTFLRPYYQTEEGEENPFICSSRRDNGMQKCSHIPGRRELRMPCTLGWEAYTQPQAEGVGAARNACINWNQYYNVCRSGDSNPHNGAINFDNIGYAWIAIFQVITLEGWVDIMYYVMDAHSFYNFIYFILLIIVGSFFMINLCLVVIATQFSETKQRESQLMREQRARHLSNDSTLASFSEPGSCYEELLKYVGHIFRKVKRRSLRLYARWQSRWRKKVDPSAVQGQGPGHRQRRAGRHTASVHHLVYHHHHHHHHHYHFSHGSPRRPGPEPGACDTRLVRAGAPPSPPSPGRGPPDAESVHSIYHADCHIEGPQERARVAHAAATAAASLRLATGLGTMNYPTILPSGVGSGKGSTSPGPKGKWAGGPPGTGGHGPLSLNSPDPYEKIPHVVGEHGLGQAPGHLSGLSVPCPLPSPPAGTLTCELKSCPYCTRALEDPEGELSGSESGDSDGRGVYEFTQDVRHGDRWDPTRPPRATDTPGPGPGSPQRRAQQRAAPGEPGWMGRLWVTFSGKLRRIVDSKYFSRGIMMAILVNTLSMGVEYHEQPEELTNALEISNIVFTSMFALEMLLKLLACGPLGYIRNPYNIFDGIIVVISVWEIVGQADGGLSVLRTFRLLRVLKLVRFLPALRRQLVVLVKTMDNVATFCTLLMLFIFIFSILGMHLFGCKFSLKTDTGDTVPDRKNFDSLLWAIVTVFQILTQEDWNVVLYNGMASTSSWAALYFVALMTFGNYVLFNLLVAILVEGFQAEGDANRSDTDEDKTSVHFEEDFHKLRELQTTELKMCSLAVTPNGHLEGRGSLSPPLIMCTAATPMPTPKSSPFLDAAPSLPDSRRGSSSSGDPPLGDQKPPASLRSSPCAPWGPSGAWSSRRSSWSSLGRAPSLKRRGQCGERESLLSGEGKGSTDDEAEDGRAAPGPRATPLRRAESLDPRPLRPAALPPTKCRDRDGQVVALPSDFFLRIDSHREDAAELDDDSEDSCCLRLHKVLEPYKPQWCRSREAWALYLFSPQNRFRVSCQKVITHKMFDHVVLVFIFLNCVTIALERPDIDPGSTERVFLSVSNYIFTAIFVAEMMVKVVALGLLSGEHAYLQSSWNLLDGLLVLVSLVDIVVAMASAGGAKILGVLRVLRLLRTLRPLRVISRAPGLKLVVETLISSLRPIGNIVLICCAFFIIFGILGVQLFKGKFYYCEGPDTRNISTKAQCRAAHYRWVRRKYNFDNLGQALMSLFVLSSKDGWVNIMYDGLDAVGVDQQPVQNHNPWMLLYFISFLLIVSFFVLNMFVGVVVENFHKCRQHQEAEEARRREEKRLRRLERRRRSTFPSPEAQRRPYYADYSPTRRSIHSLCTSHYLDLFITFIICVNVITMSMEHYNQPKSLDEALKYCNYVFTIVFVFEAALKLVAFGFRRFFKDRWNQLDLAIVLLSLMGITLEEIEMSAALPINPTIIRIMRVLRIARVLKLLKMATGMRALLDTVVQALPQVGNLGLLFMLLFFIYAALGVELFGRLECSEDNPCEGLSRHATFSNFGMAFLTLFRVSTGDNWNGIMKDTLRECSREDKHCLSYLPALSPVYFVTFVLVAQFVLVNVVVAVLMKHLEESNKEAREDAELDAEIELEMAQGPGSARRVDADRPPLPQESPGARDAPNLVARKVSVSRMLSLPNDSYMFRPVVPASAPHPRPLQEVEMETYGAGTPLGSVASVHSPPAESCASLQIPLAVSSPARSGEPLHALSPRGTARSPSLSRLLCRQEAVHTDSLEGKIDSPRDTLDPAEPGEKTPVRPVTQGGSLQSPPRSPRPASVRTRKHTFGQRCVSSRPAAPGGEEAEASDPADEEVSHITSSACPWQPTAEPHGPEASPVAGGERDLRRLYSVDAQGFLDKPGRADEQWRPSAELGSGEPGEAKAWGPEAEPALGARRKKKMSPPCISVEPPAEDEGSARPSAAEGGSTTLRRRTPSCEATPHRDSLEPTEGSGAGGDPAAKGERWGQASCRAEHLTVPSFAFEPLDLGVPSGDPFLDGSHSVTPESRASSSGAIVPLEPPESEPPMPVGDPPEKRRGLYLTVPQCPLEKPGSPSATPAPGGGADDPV
The target of assay [12] is T5, Delta-type opioid receptor (Homo sapiens, UniProt P41143). Description: HTS Image-Based Screen for Antagonists of the DOR Receptor. [Related pubchem assays (depositor defined):AID1777, AID1785, AID1786, AID2133]. The class given is functional.
T5 sequence (P41143 whole entry): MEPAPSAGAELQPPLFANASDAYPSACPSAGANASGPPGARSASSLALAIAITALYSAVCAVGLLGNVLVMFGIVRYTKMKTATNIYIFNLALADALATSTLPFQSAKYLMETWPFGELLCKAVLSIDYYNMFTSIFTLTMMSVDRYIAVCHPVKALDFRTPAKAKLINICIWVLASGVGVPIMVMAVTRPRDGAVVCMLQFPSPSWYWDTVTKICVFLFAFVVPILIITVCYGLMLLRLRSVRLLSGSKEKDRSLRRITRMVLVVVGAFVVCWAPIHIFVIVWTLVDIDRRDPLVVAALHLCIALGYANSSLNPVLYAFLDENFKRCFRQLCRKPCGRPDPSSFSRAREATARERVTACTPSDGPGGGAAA
A further assay addresses Beta-galactosidase (Escherichia coli, UniProt Q8VNN2). Type of assay: functional.
Assay [13] addresses T5, Delta-type opioid receptor. Put plainly: HTS Image-Based Screen for Agonists of the DOR Receptor. [Related pubchem assays (depositor defined):AID1777, AID1786, AID2133]. Type of assay: functional.
Assay [14] has as its target T6, Kappa-type opioid receptor (Homo sapiens, UniProt P41145). Type of assay: functional.
Another assay concerns the target Mu-type opioid receptor (Homo sapiens, UniProt P35372). Description: HTS Image-Based Screen for Agonists of the MOR Receptor. [Related pubchem assays (depositor defined):AID1777, AID1785, AID1786, AID2133]. Type of assay: functional.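 Note: imaging of beta-arrestin GFP recruitment into spots after receptor activation.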
For assay [15], the target named is T6, Kappa-type opioid receptor. The class given is functional. The source holds these as a separate data set.
Another assay deals with T7, Protein skinhead-1 (Caenorhabditis elegans, UniProt P34707).
T7 sequence (P34707 whole entry): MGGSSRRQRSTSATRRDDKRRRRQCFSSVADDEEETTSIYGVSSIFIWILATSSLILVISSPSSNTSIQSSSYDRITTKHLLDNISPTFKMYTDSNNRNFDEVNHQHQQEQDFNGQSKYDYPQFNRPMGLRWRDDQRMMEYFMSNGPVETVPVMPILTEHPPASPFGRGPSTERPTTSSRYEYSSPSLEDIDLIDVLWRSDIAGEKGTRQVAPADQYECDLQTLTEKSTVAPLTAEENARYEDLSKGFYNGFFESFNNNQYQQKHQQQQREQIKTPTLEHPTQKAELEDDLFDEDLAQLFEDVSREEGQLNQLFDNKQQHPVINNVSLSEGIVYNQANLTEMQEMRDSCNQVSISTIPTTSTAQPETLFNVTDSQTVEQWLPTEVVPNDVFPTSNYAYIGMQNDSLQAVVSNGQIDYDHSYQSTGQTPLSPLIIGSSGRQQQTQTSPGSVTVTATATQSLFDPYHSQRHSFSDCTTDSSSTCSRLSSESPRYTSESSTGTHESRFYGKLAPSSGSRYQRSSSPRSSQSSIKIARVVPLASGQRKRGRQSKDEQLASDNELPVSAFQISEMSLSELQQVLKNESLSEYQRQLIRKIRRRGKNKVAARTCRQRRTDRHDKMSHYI
Type of assay: functional.

The target in assay [16] is E3 ubiquitin-protein ligase Mdm2 (Homo sapiens, UniProt Q00987). Put plainly: MDM2-luc reporter signal enhancers, multi-concentration potency testing, MDM2 ubiquitin-protein ligase inhibitor program, whole-cell format, luminescence detection, 384-well microplate (AID 1394).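 Note: MDM2 E3 inhibitors raise luminescence so EC50 is for signal enhancement.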 Type of assay: functional.
The next assay has as its target Troponin, cardiac muscle (Homo sapiens, UniProt P19429+P45379+P63316). Put plainly: Fluorescence-based biochemical high throughput dose response assay for activators of the calcium sensitivity of cardiac Regulated Thin Filaments (RTF). [Related pubchem assays (depositor defined):AID493008, AID493018, AID504382, AID504383]. The class given is protein-complex assay.

In assay [17] the target is T8, Bifunctional protein GlmU (Mycobacterium tuberculosis, UniProt P9WMN3).
T8 sequence (P9WMN3 whole entry): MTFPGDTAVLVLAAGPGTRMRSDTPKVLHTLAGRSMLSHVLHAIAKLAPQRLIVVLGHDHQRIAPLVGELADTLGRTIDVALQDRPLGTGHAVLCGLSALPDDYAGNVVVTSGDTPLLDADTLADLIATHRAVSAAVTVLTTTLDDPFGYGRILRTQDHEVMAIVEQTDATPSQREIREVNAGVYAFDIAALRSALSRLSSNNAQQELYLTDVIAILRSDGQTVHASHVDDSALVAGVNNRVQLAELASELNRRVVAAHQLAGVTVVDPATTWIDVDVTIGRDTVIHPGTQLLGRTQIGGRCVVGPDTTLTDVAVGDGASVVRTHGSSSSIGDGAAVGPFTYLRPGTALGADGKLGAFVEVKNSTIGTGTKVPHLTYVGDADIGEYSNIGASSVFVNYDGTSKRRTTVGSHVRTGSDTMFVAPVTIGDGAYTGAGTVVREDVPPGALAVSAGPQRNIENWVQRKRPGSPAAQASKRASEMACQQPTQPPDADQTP
Description: Inhibitors of Mycobacterial Glucosamine-1-phosphate acetyl transferase (GlmU). Secondary screen. Also noted: species or system Mycobacterium tuberculosis H37Rv.

In assay [18] the target is T9, Rac GTPase-activating protein 1 (Homo sapiens, UniProt Q9H0H5).
T9 sequence (Q9H0H5 whole entry): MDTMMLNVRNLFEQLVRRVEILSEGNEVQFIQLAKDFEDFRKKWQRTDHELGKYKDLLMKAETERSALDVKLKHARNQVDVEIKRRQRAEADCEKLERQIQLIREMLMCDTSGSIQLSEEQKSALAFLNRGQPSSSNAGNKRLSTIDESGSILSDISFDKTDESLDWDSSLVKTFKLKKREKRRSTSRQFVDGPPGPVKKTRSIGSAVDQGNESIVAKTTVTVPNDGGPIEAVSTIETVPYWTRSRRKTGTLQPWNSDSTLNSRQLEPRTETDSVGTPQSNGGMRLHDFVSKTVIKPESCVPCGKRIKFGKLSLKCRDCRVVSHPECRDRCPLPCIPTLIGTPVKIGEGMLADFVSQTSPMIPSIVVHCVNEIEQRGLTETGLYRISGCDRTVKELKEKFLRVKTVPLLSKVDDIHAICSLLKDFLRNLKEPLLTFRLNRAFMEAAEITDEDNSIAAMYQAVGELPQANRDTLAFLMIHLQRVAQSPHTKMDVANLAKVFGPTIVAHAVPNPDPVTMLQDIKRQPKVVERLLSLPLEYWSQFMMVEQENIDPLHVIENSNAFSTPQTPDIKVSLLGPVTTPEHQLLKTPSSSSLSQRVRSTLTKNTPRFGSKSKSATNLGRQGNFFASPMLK
Put plainly: blockers of MgcRacGAP-driven Rac1 GTP hydrolysis – biochemical, ADP Hunter fluorescence, primary and confirmatory, confirmation (AID 624330). The class given is functional.

As a reminder, the IC50 is the concentration at which inhibition is half-maximal. Broadly, the EC50 is the concentration that produces a half-maximal response.

The structures appear in SMILES notation. Active and inactive are the calls of the source. Where only a bound is given, the exact number is not on record here.

T2 sequence (Q9HC97 whole entry): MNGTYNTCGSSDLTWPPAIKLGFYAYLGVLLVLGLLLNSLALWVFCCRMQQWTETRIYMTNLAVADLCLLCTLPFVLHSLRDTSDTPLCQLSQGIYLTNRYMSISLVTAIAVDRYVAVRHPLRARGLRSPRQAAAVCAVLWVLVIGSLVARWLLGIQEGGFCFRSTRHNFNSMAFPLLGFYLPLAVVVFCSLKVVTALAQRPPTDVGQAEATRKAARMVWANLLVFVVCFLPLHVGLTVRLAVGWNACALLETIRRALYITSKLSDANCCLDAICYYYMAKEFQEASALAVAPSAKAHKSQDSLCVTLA
T1 sequence (P34972 whole entry): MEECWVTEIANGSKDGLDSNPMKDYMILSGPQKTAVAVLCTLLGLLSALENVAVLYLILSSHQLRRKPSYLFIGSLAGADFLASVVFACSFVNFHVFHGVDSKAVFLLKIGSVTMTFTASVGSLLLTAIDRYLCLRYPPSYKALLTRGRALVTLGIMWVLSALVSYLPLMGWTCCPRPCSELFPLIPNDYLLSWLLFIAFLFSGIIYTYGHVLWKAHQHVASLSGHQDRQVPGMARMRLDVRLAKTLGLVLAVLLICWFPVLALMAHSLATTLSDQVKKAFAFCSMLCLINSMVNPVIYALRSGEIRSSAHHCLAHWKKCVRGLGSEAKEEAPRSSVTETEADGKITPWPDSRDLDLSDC
T6 sequence (P41145 whole entry): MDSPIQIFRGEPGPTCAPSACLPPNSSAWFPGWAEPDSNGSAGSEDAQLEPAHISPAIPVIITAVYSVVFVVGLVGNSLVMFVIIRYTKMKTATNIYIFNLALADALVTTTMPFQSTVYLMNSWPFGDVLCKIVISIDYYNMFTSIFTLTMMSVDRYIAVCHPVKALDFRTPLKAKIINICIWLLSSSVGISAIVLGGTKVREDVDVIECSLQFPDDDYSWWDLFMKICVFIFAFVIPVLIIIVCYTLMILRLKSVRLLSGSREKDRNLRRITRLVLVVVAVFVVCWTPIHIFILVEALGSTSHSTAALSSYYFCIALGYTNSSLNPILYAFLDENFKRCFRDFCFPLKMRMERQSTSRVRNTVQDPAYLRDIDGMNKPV
Sequence of Mu-type opioid receptor (P35372 whole entry): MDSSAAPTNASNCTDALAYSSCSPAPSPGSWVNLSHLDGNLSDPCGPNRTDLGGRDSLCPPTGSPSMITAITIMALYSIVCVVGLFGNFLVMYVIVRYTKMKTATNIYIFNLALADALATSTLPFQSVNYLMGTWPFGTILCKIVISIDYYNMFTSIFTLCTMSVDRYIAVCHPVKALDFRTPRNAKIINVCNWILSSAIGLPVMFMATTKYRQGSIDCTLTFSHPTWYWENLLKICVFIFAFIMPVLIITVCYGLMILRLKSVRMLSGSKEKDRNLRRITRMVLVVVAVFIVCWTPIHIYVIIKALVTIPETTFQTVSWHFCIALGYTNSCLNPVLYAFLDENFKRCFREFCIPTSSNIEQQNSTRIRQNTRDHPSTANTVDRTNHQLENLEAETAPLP

`Cc1nc(N2CCN(C(=O)c3ccncc3)CC2)c2c3c(sc2n1)CC(C)CC3` (stereo not given): the IC50 was > 32 µM (inactive) at Cannabinoid receptor 2 [1], > 32 µM (inactive) in assay [3], > 32 µM (inactive) in assay [5] and 13.3 µM (inactive) on Cannabinoid receptor 1 [6]. For the same molecule, the EC50 (on Cannabinoid receptor 2 [2]; in assay [4]; at Cannabinoid receptor 1 [7]) was > 32 µM (inactive) each time.
Turning to `Oc1cc(/C=C/c2c(F)cccc2Cl)nc2ccccc12`, the IC50 in assay [8] was > 49.7 µM (inactive); in [9], 3.14 µM (active); with CHO-K1, > 66.2 µM (inactive); in assay [10], 9.6 µM (active).
Turning to `O=C(COc1ccccc1Cl)N[C@H]1CCCN(Cc2ccccc2)C1`, the EC50 in [11] was 10 µM (active).
With `CC(=O)Nc1ccc(NC(=O)C(C)OC(=O)c2ccccc2C(=O)c2ccc(Cl)c([N+](=O)[O-])c2)cc1` (stereo not given), the IC50 is > 32 µM (inactive) in assay [12], 8.71 µM in assay [14] and 8.15 µM (active) in assay [15]. Also, the EC50 on Beta-galactosidase is > 31.5 µM (inactive); in assay [13], > 32 µM (inactive); on Mu-type opioid receptor, > 32 µM (inactive).
For the molecule `CCN(CC)c1ccc(/C=C2\C(=O)c3ccc(C(=O)O)cc3C2=O)cc1`, the 50% inhibitory concentration (IC50) is 23.3 µM (active) on Protein skinhead-1, 37.7 µM (active) in assay [17] and 85.4 µM (active) in assay [18]. Moreover, the concentration giving a half-maximal response (EC50) is 0.1 µM (active) in assay [16] and 0.516 µM (active) at Troponin, cardiac muscle.
Take `Cc1nc(N2CCN(C(=O)c3ccccc3)CC2)c2c3c(sc2n1)CC(C)CC3` (stereo not given): the IC50 at Cannabinoid receptor 2 [1] was > 9.18 µM (active); in assay [3] it was 21.5 µM (inactive); in [5], > 32 µM (inactive); at Cannabinoid receptor 1 [6] it was 1.68 µM (active). In addition, the results for the EC50 (on Cannabinoid receptor 2 [2]; in [4]; on Cannabinoid receptor 1 [7]) were 24.1 µM (inactive), > 32 µM (inactive) and > 32 µM (inactive), respectively.
